Measured values: patent US9914722B2, “Compounds for treating spinal muscular atrophy” (PTC Therapeutics Inc., priority 2012, dated 2018)

Test system: full length SMN2 minigene mRNA containing SMN2 exon 7 (SMN2-A minigene)
Experiment: SMN2 minigene mRNA splicing RT-qPCR assay in cultured cells
Type: cell-based, human
Conditions: for SMN2 minigene FL mRNA relative to vehicle / SMN2 minigene alternative splicing / exon 7 inclusion: HEK293H cells with SMN2-A minigene, 24 hr, RT-qPCR, FIG. 3; for EC (1.5-fold): Homo sapiens, HEK293-H, HEK293H cells stably transfected with SMN2-A minigene, 24 hours, 7-point concentration curve, concentration giving 1.5-fold SMN2 full length mRNA vs vehicle, read-out: EC1.5x for production of full length SMN2 mRNA
Outline: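 HEK293H cells stably carrying the SMN2-A minigene were treated 24 h at 37 °C with a 7-point, 3.16-fold test compound series, in duplicate. Multiplex RT-qPCR measured exon 7-containing minigene FL mRNA, normalized to GAPDH and expressed relative to vehicle; EC1.5x is the concentration giving 1.5-fold FL mRNA.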

| SMILES | SMN2 minigene FL mRNA relative to vehicle | SMN2 minigene alternative splicing / exon 7 inclusion | EC (1.5-fold) [µM] |
| --- | --- | --- | --- |
| C[C@@H]1CN(c2ccc3oc(-c4cn5ccccc5n4)cc(=O)c3c2)C[C@H](C)N1 [Cpd 17, 6-[(3R,5S)-3,5-dimethylpiperazin-1-yl]-2-(imidazo[1,2-a]pyridin-2-yl)-4H-chromen-4-one] | increased SMN2 minigene FL mRNA at low concentrations | correction of SMN2 minigene alternative splicing | 1 to 3 |
| COc1ccc(-c2cc(=O)c3cc(N4CCN[C@@H](C)C4)ccc3o2)cc1F [Cpd 38, 2-(3-fluoro-4-methoxyphenyl)-6-[(3S)-3-methylpiperazin-1-yl]-4H-chromen-4-one] | increased SMN2 minigene FL mRNA at low concentrations | correction of SMN2 minigene alternative splicing | ≤ 0.1 |
